From PubChem BioAssay (NCI)
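Test compounds were applied to cells in 96-well plates for 48 hours at 5 doses. GI50: concentration for 50% inhibition of growth. TGI: concentration producing complete growth inhibition.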

Experiments:
Test in all cases: DTP human tumour cell line panel, 48 h
786-0 renal = system: 786-0 renal
A498 renal = system: A498 renal
A549 NSCLC = system: A549 NSCLC
ACHN renal = system: ACHN renal
CCRF-CEM leukemia = system: CCRF-CEM leukemia
COLO 205 colon = system: COLO 205 colon
DU-145 prostate = system: DU-145 prostate
EKVX NSCLC = system: EKVX NSCLC
HCC-2998 colon = system: HCC-2998 colon
HCT-116 colon = system: HCT-116 colon
HCT-15 colon = system: HCT-15 colon
HL-60(TB) leukemia = system: HL-60(TB) leukemia
HOP-62 NSCLC = system: HOP-62 NSCLC
HOP-92 NSCLC = system: HOP-92 NSCLC
HS 578T breast = system: HS 578T breast
HT29 colon = system: HT29 colon
IGROV1 ovarian = system: IGROV1 ovarian
KM12 colon = system: KM12 colon
LOX IMVI melanoma = system: LOX IMVI melanoma
M14 melanoma = system: M14 melanoma
MALME-3M melanoma = system: MALME-3M melanoma
MCF7 breast = system: MCF7 breast
MDA-MB-231 breast = system: MDA-MB-231 breast
MDA-MB-435 = system: MDA-MB-435
MOLT-4 leukemia = system: MOLT-4 leukemia
NCI-H226 lung = system: NCI-H226 lung
NCI-H23 lung = system: NCI-H23 lung
NCI-H460 lung = system: NCI-H460 lung
NCI-H522 lung = system: NCI-H522 lung
NCI/ADR-RES ovarian = system: NCI/ADR-RES ovarian
OVCAR-3 ovarian = system: OVCAR-3 ovarian
OVCAR-4 ovarian = system: OVCAR-4 ovarian
OVCAR-5 ovarian = system: OVCAR-5 ovarian
OVCAR-8 ovarian = system: OVCAR-8 ovarian
PC-3 prostate = system: PC-3 prostate
RXF 393 renal = system: RXF 393 renal
SF-268 CNS = system: SF-268 CNS
SF-295 CNS = system: SF-295 CNS
SF-539 CNS = system: SF-539 CNS
SK-MEL-28 melanoma = system: SK-MEL-28 melanoma
SK-MEL-5 melanoma = system: SK-MEL-5 melanoma
SK-OV-3 ovarian = system: SK-OV-3 ovarian
SN12C renal = system: SN12C renal
SNB-19 CNS = system: SNB-19 CNS
SNB-75 CNS = system: SNB-75 CNS
SR leukemia = system: SR leukemia
SW-620 colon = system: SW-620 colon
T-47D breast = system: T-47D breast
TK-10 renal = system: TK-10 renal
UACC-257 melanoma = system: UACC-257 melanoma
UACC-62 melanoma = system: UACC-62 melanoma
UO-31 renal = system: UO-31 renal

OCCCc1n(Cc2ccc3ccccc3c2)c2ccccc2[n+]1Cc1ccc2ccccc2c1
GI50 (786-0 renal): 2090 nM
TGI (786-0 renal): 4740 nM
GI50 (A498 renal): 1380 nM
TGI (A498 renal): 5180 nM
GI50 (A549 NSCLC): 6970 nM
TGI (A549 NSCLC): 31400 nM
GI50 (ACHN renal): 12500 nM
TGI (ACHN renal): 28000 nM
GI50 (CCRF-CEM leukemia): 1990 nM
TGI (CCRF-CEM leukemia): 5650 nM
GI50 (COLO 205 colon): 838 nM
TGI (COLO 205 colon): 2530 nM
GI50 (DU-145 prostate): 3520 nM
TGI (DU-145 prostate): 14200 nM
GI50 (EKVX NSCLC): 3680 nM
TGI (EKVX NSCLC): 19400 nM
GI50 (HCC-2998 colon): 1650 nM
TGI (HCC-2998 colon): 3250 nM
GI50 (HCT-116 colon): 1050 nM
TGI (HCT-116 colon): 2590 nM
GI50 (HCT-15 colon): 11200 nM
TGI (HCT-15 colon): 24800 nM
GI50 (HL-60(TB) leukemia): 507 nM
TGI (HL-60(TB) leukemia): 2360 nM
GI50 (HOP-62 NSCLC): 2320 nM
TGI (HOP-62 NSCLC): 11600 nM
GI50 (HOP-92 NSCLC): 567 nM
TGI (HOP-92 NSCLC): 3100 nM
GI50 (HS 578T breast): 2150 nM
TGI (HS 578T breast): 7960 nM
GI50 (HT29 colon): 1020 nM
TGI (HT29 colon): 4170 nM
GI50 (IGROV1 ovarian): 800 nM
TGI (IGROV1 ovarian): 2480 nM
GI50 (KM12 colon): 1400 nM
TGI (KM12 colon): 3080 nM
GI50 (LOX IMVI melanoma): 1340 nM
TGI (LOX IMVI melanoma): 2680 nM
GI50 (M14 melanoma): 1330 nM
TGI (M14 melanoma): 3560 nM
GI50 (MALME-3M melanoma): 1280 nM
TGI (MALME-3M melanoma): 2820 nM
GI50 (MCF7 breast): 1700 nM
TGI (MCF7 breast): 3670 nM
GI50 (MDA-MB-231 breast): 1320 nM
TGI (MDA-MB-231 breast): 2780 nM
GI50 (MDA-MB-435): 1220 nM
TGI (MDA-MB-435): 2710 nM
GI50 (MOLT-4 leukemia): 1880 nM
TGI (MOLT-4 leukemia): 5240 nM
GI50 (NCI-H226 lung): 2230 nM
TGI (NCI-H226 lung): 10500 nM
GI50 (NCI-H23 lung): 1650 nM
TGI (NCI-H23 lung): 8170 nM
GI50 (NCI-H460 lung): 2430 nM
TGI (NCI-H460 lung): 9570 nM
GI50 (NCI-H522 lung): 1050 nM
TGI (NCI-H522 lung): 3950 nM
GI50 (NCI/ADR-RES ovarian): 27000 nM
TGI (NCI/ADR-RES ovarian): > 100000 nM
GI50 (OVCAR-3 ovarian): 1070 nM
TGI (OVCAR-3 ovarian): 2810 nM
GI50 (OVCAR-4 ovarian): 670 nM
TGI (OVCAR-4 ovarian): 6730 nM
GI50 (OVCAR-5 ovarian): 1980 nM
TGI (OVCAR-5 ovarian): 7170 nM
GI50 (OVCAR-8 ovarian): 2670 nM
TGI (OVCAR-8 ovarian): 14000 nM
GI50 (PC-3 prostate): 1740 nM
TGI (PC-3 prostate): 11100 nM
GI50 (RXF 393 renal): 1500 nM
TGI (RXF 393 renal): 3830 nM
GI50 (SF-268 CNS): 1810 nM
TGI (SF-268 CNS): 4560 nM
GI50 (SF-295 CNS): 2640 nM
TGI (SF-295 CNS): 11300 nM
GI50 (SF-539 CNS): 2010 nM
TGI (SF-539 CNS): 6510 nM
GI50 (SK-MEL-28 melanoma): 1220 nM
TGI (SK-MEL-28 melanoma): 2880 nM
GI50 (SK-MEL-5 melanoma): 1110 nM
TGI (SK-MEL-5 melanoma): 2320 nM
GI50 (SK-OV-3 ovarian): 2870 nM
TGI (SK-OV-3 ovarian): 13600 nM
GI50 (SN12C renal): 1850 nM
TGI (SN12C renal): 10200 nM
GI50 (SNB-19 CNS): 1270 nM
TGI (SNB-19 CNS): 2850 nM
GI50 (SNB-75 CNS): 1590 nM
TGI (SNB-75 CNS): 4970 nM
GI50 (SR leukemia): 1160 nM
TGI (SR leukemia): 3780 nM
GI50 (SW-620 colon): 1460 nM
TGI (SW-620 colon): 3220 nM
GI50 (T-47D breast): 615 nM
TGI (T-47D breast): 6820 nM
GI50 (TK-10 renal): 1950 nM
TGI (TK-10 renal): 4740 nM
GI50 (UACC-257 melanoma): 1180 nM
TGI (UACC-257 melanoma): 3250 nM
GI50 (UACC-62 melanoma): 666 nM
TGI (UACC-62 melanoma): 2090 nM
GI50 (UO-31 renal): 10400 nM
TGI (UO-31 renal): 25300 nM
